This test concerns the target orphan nuclear receptor 4A1 (NR4A1) (Homo sapiens, UniProt P22736). Briefly: ITC with the NR4A1 LBD; also Trp fluorescence quenching (KD […]) and GAL4-NR4A1 reporter assay. In kind it is binding. On the technique in general: In a reporter assay the amount or activity of a reporter protein is the signal.

Sequence of orphan nuclear receptor 4A1 (NR4A1) (P22736 360-598 limits assumed): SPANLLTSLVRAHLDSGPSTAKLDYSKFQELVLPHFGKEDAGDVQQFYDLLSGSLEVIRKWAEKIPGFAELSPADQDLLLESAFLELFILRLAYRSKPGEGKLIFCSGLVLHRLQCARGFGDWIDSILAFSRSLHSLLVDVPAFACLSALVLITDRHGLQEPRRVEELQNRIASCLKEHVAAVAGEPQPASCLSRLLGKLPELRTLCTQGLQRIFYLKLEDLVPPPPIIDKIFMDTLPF

A word on the Kd: it is the concentration at which binding is half-saturated. Low values mean a tighter complex, high ones a looser complex. Consider `COc1cc(/C=C/C(=O)N2CCC=CC2=O)cc(OC)c1OC` [piperlongumine], for which the Kd was 4.97 µM.

The record behind these values is PMC10551445, “Piperlongumine is a ligand for the orphan nuclear receptor 4A1 (NR4A1)” (Frontiers in Pharmacology, 2023).
